These results are taken from PMC9371267 (PLoS Biology, 2022).

Numbering of substitutions follows the chain as printed.

Common to all, as to assay type: cell-based
For one assay, the target named is T1, human GALR2 WT (Homo sapiens, UniProt O43603).
T1 construct: expressed in transfected cells; host or cells: HEK293A
T1 sequence (O43603 1-387): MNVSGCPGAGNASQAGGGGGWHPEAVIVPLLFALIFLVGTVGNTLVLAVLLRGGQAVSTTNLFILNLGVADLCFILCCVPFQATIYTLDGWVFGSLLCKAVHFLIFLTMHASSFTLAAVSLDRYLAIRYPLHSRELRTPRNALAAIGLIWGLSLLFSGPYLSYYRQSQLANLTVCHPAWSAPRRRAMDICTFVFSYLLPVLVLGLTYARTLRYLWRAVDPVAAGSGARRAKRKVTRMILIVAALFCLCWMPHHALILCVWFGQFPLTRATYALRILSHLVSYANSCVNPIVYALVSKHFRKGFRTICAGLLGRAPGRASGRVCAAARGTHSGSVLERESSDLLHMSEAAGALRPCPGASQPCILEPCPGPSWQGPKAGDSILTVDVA
The experiment in a line: NanoBiT-based Gq activation assay (Gq-PLCβ association), WT GALR2. The following applies: HEK293-A, HEK293A, normalized to WT (1:1), mean ± SEM, n = 3. As to the method:
(§1) After an incubation for 1 day, the transfected cells were harvested, pelleted with centrifugation, and suspended in 2 mL of Hank’s balanced saline solution containing 0.01% bovine serum albumin (BSA fatty acid–free grade, SERVA) and 5 mM HEPES (pH 7.4) (assay buffer). The cell suspension was dispensed in a white 96-well plate at a volume of 80 μl per well and mixed with 20 μl of 50 μM coelenterazine (custom-synthesized by Amadis Chemical) diluted in the assay buffer. After 2-h incubation at room temperature, the plate was measured for baseline luminescence (SpectraMax L, Molecular Devices). […] Kinetics data points from 5 min to 10 min were averaged and normalized to the initial count and used as a G-protein activation index. The G-protein activation signals were fitted to a 4-parameter sigmoidal concentration-response curve (GraphPad Prism8), and pEC50 values (negative logarithmic values of EC50 values) and Span values (“Top”–“Bottom”) were obtained. For individual experiments, we calculated Emax by normalizing Span to the WT GALR2 and ΔpEC50 by subtracting pEC50 of the WT GALR2 performed in parallel. We also calculated Emax/EC50 of GALR2 mutants relative to that of GALR2 WT, a dimensionless parameter known as relative intrinsic activity (RAi) and used its log-transformed value (Log RAi) to denote receptor activity.

In assay [1] the target is T2, GALR2 Y164^4.64×65F mutant (Homo sapiens, UniProt O43603, Y164F).
T2 construct: expressed in transfected cells; host or cells: HEK293A
T2 sequence (O43603 1-387 Y164F): T1 sequence (O43603 1-387) with Y164F
The experiment in a line: NanoBiT-based Gq activation assay, Y164^4.64×65F. The following applies: HEK293-A; HEK293A; expression ~WT (1:2.5); normalized to WT (1:1); mean ± SEM, n = 3; * p < 0.05 vs expression-matched WT. As to the method: as §1

A further assay has as its target T3, GALR2 H176^ECL2A mutant (Homo sapiens, UniProt O43603, H176A).
T3 construct: expressed in transfected cells; host or cells: HEK293A
T3 sequence (O43603 1-387 H176A): T1 sequence (O43603 1-387) with H176A
The assay is described as follows: NanoBiT-based Gq activation assay, H176^ECL2A. The following applies: HEK293-A; HEK293A; expression ~WT (1:1); normalized to WT (1:1); mean ± SEM, n = 3; ns p > 0.05 vs expression-matched WT. As to the method:
as §1

Another assay deals with T4, GALR2 L255^6.54A mutant (Homo sapiens, UniProt O43603, L255A).
T4 construct: expressed in transfected cells; host or cells: HEK293A
T4 sequence (O43603 1-387 L255A): T1 sequence (O43603 1-387) with L255A
The experiment in a line: NanoBiT-based Gq activation assay, L255^6.54A. Particulars: HEK293-A. As for the experimental part: as §1

A further assay has as its target T5, GALR2 F264^ECL3A mutant (Homo sapiens, UniProt O43603, F264A).
T5 construct: expressed in transfected cells; host or cells: HEK293A
T5 sequence (O43603 1-387 F264A): T1 sequence (O43603 1-387) with F264A
The assay is described as follows: NanoBiT-based Gq activation assay, F264^ECL3A. Particulars: HEK293-A; HEK293A; expression ~WT (1:1); normalized to WT (1:1); mean ± SEM, n = 3; ns p > 0.05 vs expression-matched WT. As to the method: as §1

Consider `CC(C)C[C@H](NC(=O)CNC(=O)[C@H](CC(N)=O)NC(=O)[C@H](CCCCN)NC(=O)[C@H](CC(=O)O)NC(=O)[C@H](CO)NC(=O)[C@H](Cc1ccccc1)NC(=O)[C@H](CO)NC(=O)[C@H](CCCNC(=N)N)NC(=O)[C@H](Cc1c[nH]cn1)NC(=O)[C@H](CC(N)=O)NC(=O)CNC(=O)[C@@H](NC(=O)[C@H](C)NC(=O)[C@H](Cc1c[nH]cn1)NC(=O)[C@@H]1CCCN1C(=O)CNC(=O)[C@H](CC(C)C)NC(=O)[C@H](CC(C)C)NC(=O)[C@H](Cc1ccc(O)cc1)NC(=O)CNC(=O)[C@H](C)NC(=O)[C@H](CO)NC(=O)[C@H](CC(N)=O)NC(=O)[C@H](CC(C)C)NC(=O)[C@@H](NC(=O)[C@H](Cc1c[nH]c2ccccc12)NC(=O)CN)[C@@H](C)O)C(C)C)C(=O)N[C@H](C(=O)N[C@@H](CO)C(=O)O)[C@@H](C)O` [galanin], for which the Emax (as a rule, the greatest response seen or fitted, relative to the assay's reference) on human GALR2 WT (WT (1:5) plasmid) came out at 70.1 ± 8.7%; at human GALR2 WT (WT (1:10) plasmid), 48.3 ± 4.7%; at human GALR2 WT (WT (1:25) plasmid), 27.4 ± 5.1%; in assay [1] it was 64.9 ± 2.4%; at GALR2 H176^ECL2A mutant it was 116 ± 3.4%; at GALR2 L255^6.54A mutant it was 64.7 ± 1.6%. This compound yielded an Emax at GALR2 F264^ECL3A mutant of 90.3 ± 2.3%.
